The values below come from article PMC4584933, “Establishing the pig as a large animal model for vaccine development against human cancer” (Frontiers in Genetics, 2015).

In one experiment the test system is SLA-1*04:01. Description: Peptide-MHC class I complex stability, scintillation proximity assay (SPA). Details: species or system pig. To be noted: biotinylated recombinant SLA heavy chain, 125I-β2m, excess unlabeled β2m, read every 40 min, number only if t1/2 ≥ 0.5 h, '-' = not stably binding. The essentials:
(§1)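 Biotinylated recombinant heavy chains captured on streptavidin scintillation plates with 125I-β2m and peptide; signal read every 40 min under dissociating conditions with excess unlabeled β2m. Signal duration gives complex half-life; ≥ 0.5 h counted as stable binder.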

Another experiment deals with PBMCs. Put plainly: In vitro peptide stimulation of porcine PBMCs, IFN-γ release assay (ELISA). It counts as cell-based, pig. Details: key to T cell response: “x” indicates that a response was found to this given peptide at least once. The note with it: PBMCs of immunized pigs, 2 × 10^5/well, 5 μg/ml peptide, 67.5–70.0 h, IFN-γ ELISA; response = 2-fold increase vs day -2 and at least 25 pg/ml IFN-γ, found at least once; SLA restriction not included. (ELISA stands for enzyme-linked immunosorbent assay.)

The next experiment has as its system SLA-1*07:02. Put plainly: Peptide-MHC class I complex stability, scintillation proximity assay (SPA). Also noted: species or system pig. To be noted: biotinylated recombinant SLA heavy chain, 125I-β2m, excess unlabeled β2m, read every 40 min, number only if t1/2 ≥ 0.5 h, '-' = not stably binding. An outline of the steps:
as §1
In general terms: Scintillation proximity formats need no separation of bound from free tracer.

A further experiment has as its system SLA-2*04:01. The experiment is described as above. Also noted: species or system pig. To be noted: biotinylated recombinant SLA heavy chain, 125I-β2m, excess unlabeled β2m, read every 40 min, number only if t1/2 ≥ 0.5 h, '-' = not stably binding. The essentials: as §1
In the next experiment the test system is SLA-3*04:01. The experiment is described as above. Details: species or system pig. The note with it: biotinylated recombinant SLA heavy chain, 125I-β2m, excess unlabeled β2m, read every 40 min, number only if t1/2 ≥ 0.5 h, '-' = not stably binding. The essentials: as §1

For “AIAKNLPEL [IDO2, porcine IDO-derived 9-11mer peptide]”, the “Binder (t1/2 ≥ 0.5 h): half-life of peptide-SLA-1*04:01 complex” value (“Binder … of peptide-SLA-1*04:01 complex” below) in the experiment with SLA-1*04:01 is “- (t1/2 (hours) is listed for each of the stably binding peptides (t1/2 ≥ 0.5 h))”. With “ALEVFHQIHEY [IDO4, porcine IDO-derived 9-11mer peptide]”, the “Binder … of peptide-SLA-1*04:01 complex” value with SLA-1*04:01 was “- (t1/2 (hours) is listed for each of the stably binding peptides (t1/2 ≥ 0.5 h))”. Consider “CPNVPIILV [RhoC5, porcine RhoC-derived 9-11mer peptide]”, for which, in the experiment on PBMCs, the T cell response result is on record as “x”. Besides, in the experiment on SLA-1*07:02, the “Binder (t1/2 ≥ 0.5 h): half-life of peptide-SLA-1*07:02 complex” value (from here on “Binder … of peptide-SLA-1*07:02 complex”) came to 0.7 h. For “DMANRISAFGY [RhoC8, porcine RhoC-derived 9-11mer peptide]”, in the experiment with PBMCs, the T cell response result is “x”. Also, the “Binder (t1/2 ≥ 0.5 h): half-life of peptide-SLA-2*04:01 complex” value (“Binder … of peptide-SLA-2*04:01 complex” below) in the experiment with SLA-2*04:01 was 1.1 h. In addition, the “Binder … of peptide-SLA-1*07:02 complex” value in the experiment on SLA-1*07:02 is recorded as “- (t1/2 (hours) is listed for each of the stably binding peptides (t1/2 ≥ 0.5 h))”. Turning to “DPSGPMTYKNM [IDO12, porcine IDO-derived 9-11mer peptide]”, in the experiment with PBMCs, the T cell response entry is “x”. Also, in the experiment with SLA-1*07:02, the “Binder … of peptide-SLA-1*07:02 complex” value is recorded as 0.5 h.

On to “DTDVILMCF [RhoC10, porcine RhoC-derived 9-11mer peptide]”, for which the “Binder … of peptide-SLA-1*04:01 complex” value in the experiment with SLA-1*04:01 came to 1.3 h. Consider “DYDRLRPLSY [RhoC13, porcine RhoC-derived 9-11mer peptide]”, for which, in the experiment on SLA-1*04:01, the “Binder … of peptide-SLA-1*04:01 complex” value is reported as “- (t1/2 (hours) is listed for each of the stably binding peptides (t1/2 ≥ 0.5 h))”. In the case of “EVDGKQVEL [RhoC21, porcine RhoC-derived 9-11mer peptide]”, the “Binder … of peptide-SLA-1*04:01 complex” value with SLA-1*04:01 was “- (t1/2 (hours) is listed for each of the stably binding peptides (t1/2 ≥ 0.5 h))”.

For the sequence “EVDGKQVELAL [RhoC22, porcine RhoC-derived 9-11mer peptide]”, the “Binder … of peptide-SLA-1*04:01 complex” value in the experiment on SLA-1*04:01 was determined as 0.6 h.

For “EVFHQIHEY [IDO21, porcine IDO-derived 9-11mer peptide]”, in the experiment with PBMCs, the T cell response result is given as “x”. In addition, in the experiment on SLA-2*04:01, the “Binder … of peptide-SLA-2*04:01 complex” value worked out at 23.8 h. The “Binder … of peptide-SLA-1*07:02 complex” value in the experiment with SLA-1*07:02 amounted to 10.1 h. As to “GVPSGSAAGF [IDO34, porcine IDO-derived 9-11mer peptide]”, the “Binder … of peptide-SLA-1*04:01 complex” value in the experiment with SLA-1*04:01 is recorded as “- (t1/2 (hours) is listed for each of the stably binding peptides (t1/2 ≥ 0.5 h))”. As to “HIDEDLGFAL [IDO35, porcine IDO-derived 9-11mer peptide]”, the “Binder … of peptide-SLA-1*04:01 complex” value with SLA-1*04:01 is given as “- (t1/2 (hours) is listed for each of the stably binding peptides (t1/2 ≥ 0.5 h))”. For the sequence “KKDPSGPMTY [IDO51, porcine IDO-derived 9-11mer peptide]”, the “Binder … of peptide-SLA-1*04:01 complex” value in the experiment on SLA-1*04:01 is “- (t1/2 (hours) is listed for each of the stably binding peptides (t1/2 ≥ 0.5 h))”. Consider “KLFFNVLRIY [IDO53, porcine IDO-derived 9-11mer peptide]”, for which the “Binder (t1/2 ≥ 0.5 h): half-life of peptide-SLA-3*04:01 complex” value (shortened to “Binder … of peptide-SLA-3*04:01 complex”) in the experiment with SLA-3*04:01 was “- (t1/2 (hours) is listed for each of the stably binding peptides (t1/2 ≥ 0.5 h))”. Also, the “Binder … of peptide-SLA-1*07:02 complex” value in the experiment with SLA-1*07:02 is “- (t1/2 (hours) is listed for each of the stably binding peptides (t1/2 ≥ 0.5 h))”. In the case of “LPRNIAIPY [IDO70, porcine IDO-derived 9-11mer peptide]”, the T cell response entry in the experiment on PBMCs is given as “x”. Further, the “Binder … of peptide-SLA-1*07:02 complex” value with SLA-1*07:02 is recorded as 1.0 h.

Take “LWDTAGQEDY [RhoC38, porcine RhoC-derived 9-11mer peptide]”: the “Binder … of peptide-SLA-1*04:01 complex” value in the experiment on SLA-1*04:01 was “- (t1/2 (hours) is listed for each of the stably binding peptides (t1/2 ≥ 0.5 h))”. Consider “MALDWWSPM [IDO75, porcine IDO-derived 9-11mer peptide]”, for which the T cell response entry with PBMCs was “x”. Further, the “Binder … of peptide-SLA-3*04:01 complex” value in the experiment on SLA-3*04:01 was “- (t1/2 (hours) is listed for each of the stably binding peptides (t1/2 ≥ 0.5 h))”. The “Binder … of peptide-SLA-1*07:02 complex” value in the experiment with SLA-1*07:02 stood at 0.5 h. As for “MQRLAHLVLGY [IDO79, porcine IDO-derived 9-11mer peptide]”, the “Binder … of peptide-SLA-2*04:01 complex” value in the experiment with SLA-2*04:01 is recorded as “- (t1/2 (hours) is listed for each of the stably binding peptides (t1/2 ≥ 0.5 h))”. The “Binder … of peptide-SLA-3*04:01 complex” value in the experiment on SLA-3*04:01 is given as “- (t1/2 (hours) is listed for each of the stably binding peptides (t1/2 ≥ 0.5 h))”. In addition, the “Binder … of peptide-SLA-1*07:02 complex” value in the experiment with SLA-1*07:02 is “- (t1/2 (hours) is listed for each of the stably binding peptides (t1/2 ≥ 0.5 h))”. For the sequence “MVSLRNYHL [IDO83, porcine IDO-derived 9-11mer peptide]”, in the experiment on SLA-1*04:01, the “Binder … of peptide-SLA-1*04:01 complex” value was “- (t1/2 (hours) is listed for each of the stably binding peptides (t1/2 ≥ 0.5 h))”. In the case of “NPLLSEGLLY [IDO88, porcine IDO-derived 9-11mer peptide]”, the T cell response result with PBMCs is recorded as “x”. Moreover, in the experiment with SLA-1*07:02, the “Binder … of peptide-SLA-1*07:02 complex” value is given as 24.0 h. As to “NSWKIFEEY [IDO89, porcine IDO-derived 9-11mer peptide]”, in the experiment on SLA-2*04:01, the “Binder … of peptide-SLA-2*04:01 complex” value stood at 0.7 h. The “Binder … of peptide-SLA-1*07:02 complex” value in the experiment with SLA-1*07:02 was “- (t1/2 (hours) is listed for each of the stably binding peptides (t1/2 ≥ 0.5 h))”. On to “PLEELPHPY [IDO94, porcine IDO-derived 9-11mer peptide]”, for which the “Binder … of peptide-SLA-1*04:01 complex” value in the experiment on SLA-1*04:01 is on record as “- (t1/2 (hours) is listed for each of the stably binding peptides (t1/2 ≥ 0.5 h))”. Turning to “PPAHRNFLH [IDO97, porcine IDO-derived 9-11mer peptide]”, in the experiment with PBMCs, the T cell response result is recorded as “x”. The “Binder … of peptide-SLA-1*07:02 complex” value in the experiment with SLA-1*07:02 is 1.1 h. With “PPAHRNFLHSL [IDO98, porcine IDO-derived 9-11mer peptide]”, the T cell response result with PBMCs was “x”. In addition, the “Binder … of peptide-SLA-1*07:02 complex” value in the experiment with SLA-1*07:02 stood at 0.7 h. “PPILVYADCV [IDO99, porcine IDO-derived 9-11mer peptide]”: the T cell response result in the experiment with PBMCs was “x”. Also, the “Binder … of peptide-SLA-1*07:02 complex” value in the experiment with SLA-1*07:02 worked out at 3.5 h.

For the sequence “SPMDNSWKI [IDO119, porcine IDO-derived 9-11mer peptide]”, the T cell response entry in the experiment on PBMCs is given as “x”. Besides, the “Binder … of peptide-SLA-1*07:02 complex” value in the experiment with SLA-1*07:02 came out at 1.9 h. Take “SPMDNSWKIF [IDO120, porcine IDO-derived 9-11mer peptide]”: the T cell response entry with PBMCs is “x”. In addition, the “Binder … of peptide-SLA-1*07:02 complex” value in the experiment on SLA-1*07:02 stood at 2.6 h.

Consider “VPSGSAAGF [IDO128, porcine IDO-derived 9-11mer peptide]”, for which the “Binder … of peptide-SLA-2*04:01 complex” value with SLA-2*04:01 is “- (t1/2 (hours) is listed for each of the stably binding peptides (t1/2 ≥ 0.5 h))”. The “Binder … of peptide-SLA-1*07:02 complex” value with SLA-1*07:02 is “- (t1/2 (hours) is listed for each of the stably binding peptides (t1/2 ≥ 0.5 h))”. As to “YHLQIVTKY [IDO134, porcine IDO-derived 9-11mer peptide]”, the “Binder … of peptide-SLA-2*04:01 complex” value in the experiment on SLA-2*04:01 was “- (t1/2 (hours) is listed for each of the stably binding peptides (t1/2 ≥ 0.5 h))”. Also, the “Binder … of peptide-SLA-1*07:02 complex” value in the experiment on SLA-1*07:02 is “- (t1/2 (hours) is listed for each of the stably binding peptides (t1/2 ≥ 0.5 h))”. With “YPDTDVILM [RhoC58, porcine RhoC-derived 9-11mer peptide]”, the T cell response result with PBMCs is recorded as “x”. Moreover, the “Binder … of peptide-SLA-1*07:02 complex” value in the experiment with SLA-1*07:02 is listed as 1.2 h.

Turning to “YVPTVFENY [RhoC60, porcine RhoC-derived 9-11mer peptide]”, the “Binder … of peptide-SLA-2*04:01 complex” value in the experiment on SLA-2*04:01 is “- (t1/2 (hours) is listed for each of the stably binding peptides (t1/2 ≥ 0.5 h))”. Besides, the “Binder … of peptide-SLA-1*07:02 complex” value in the experiment on SLA-1*07:02 is given as “- (t1/2 (hours) is listed for each of the stably binding peptides (t1/2 ≥ 0.5 h))”.
